{
  "source": "patent US20070190090A1",
  "about": "“SIALAGOGUE BASED ORAL CARE PRODUCTS” (WhiteHill Oral Technologies, Inc., priority 2006, published 2007)",
  "origin": "cited, not measured here",
  "key": {"[1]": {"tested_on": "certain microorganisms (Gram positive and Gram negative bacteria)", "details": "toxicity varying for Gram positive and Gram negative bacteria"}, "[2]": {"details": "mice, orally"}},
  "data": [
    {"smiles": "C/C=C/C=C\\CC/C=C/C(=O)NCC(C)C", "note": "[affinin, N-isobutyl-2E,6Z,8E-decatrienamide]", "values": [
      {"measurement": "toxicity to certain microorganisms", "setting": "[1]", "value": "toxic"},
      {"measurement": "analgesic effect", "setting": "[2]; doses from 2.5 to 10.0 mg/kg", "value": "analgesic effect"},
      {"measurement": "deaths", "setting": "[2]; highest dose (10.0 mg/kg)", "value": "two out of five"},
      {"measurement": "effect on normal motor activity", "setting": "[2]; highest dose (10.0 mg/kg)", "value": "severe depression of normal motor activity"}
    ]}
  ]
}
